Where a SMILES comes first, the peptide text is derived from it. [ ]: non-standard residue; d: D form. The star is where a group is joined. Sta = CC(C)C[C@H](N)[C@@H](O)CC(=O)O; Isovaleryl = CC(C)CC(=O)*
Tested on: KCC2 expression (KCC2-2A-luciferase reporter)
Experiment: KCC2-2A-luciferase reporter compound screening with RTT KCC2 reporter neurons
Format: cell-based, human
Conditions: MECP2-null RTT human KCC2 reporter neurons; LINCS, SMART, ICCB libraries; Luc/CTG normalized to in-plate DMSO; hit = B score >3
Experimental: The RTT KCC2-2A-luciferase reporter neurons were treated with the test compounds from the LINCS kinase inhibitor library and IRSF SMART compound library and incubated before being lysed. The cell lysate was divided into two parts to measure luciferase signal (KCC2 translation) and Cell-Titer Glow (CTG, amount of ATP). The luciferase signal was normalized to CTG for each well, and the Luc/CTG ratio was normalized to the in-plate DMSO negative control to calculate fold change ratio.
Additional screens for reporter activation in the MECP2-null RTT human KCC2 reporter neurons (isogenic to the WT reporter cells used above) were performed with the LINCS and SMART libraries as well as the ICCB known bioactive library and identified hits as compounds with B score >3.
The cells were dissociated with Accutase and resuspended in 10 ml neuronal differentiation medium to count cells. The cells were then diluted to the final density of 200,000 to 500,000 cells/ml. Matrigel was added to the cell suspension at a dilution ratio of 1:300 to promote cell adhesion after plating. AraC was added to cell suspension at the concentration of 2 μM to inhibit cell division. The cells were plated into 96-well plates with an automated cell seeding machine using the following protocol: The neuron flask was washed with PBS. The neurons were digested off the plate with Accutase for 30 minutes at 37° C. Next, the dissociated cells were collected and spun down at 750 rpm for 5 minutes. The cell pellet was dissociated by gentle trituration with P1000 pipet and the cells were resuspended with 10 ml of neuronal medium. Then, the cells were filtered through a 40 μm cell strainer (Falcon) to get rid of clumps. The resulting single-cell suspension was counted using a Countess automated cell counter (Invitrogen Countess Automated Cell Counter, Catalog no. C10227). The neurons were resuspended with neuronal medium to 10× of the destination density (100,000 cells to 400,000 cells per ml). The cells were plated with a multichannel pipette, or proceeded to the machine-plating protocol described below:
The day after cell seeding, small molecule compounds from the IRSF (International Rett Syndrome Foundation) library were prepared at a concentration of 1 mM and dispensed into a blank V-bottomed test plates at 2 μl per well. Compound solvent DMSO was included in every plate as control. Using a liquid handling robot, about 80 μl of culture medium were discarded. Neuronal medium in the volume of 200 μl was added to the V-bottom test plate that contained 2 μl of 1 mM compounds, and mixed with compounds by pipetting up-and-down 3 times. The medium that contained the 10 μM compounds was then applied to the neuronal cell culture and incubated for 2 weeks before cell lysis and luciferase assay were performed.
The cells were dissociated with Accutase, resuspended in 10 ml neuronal differentiation medium to count cells. the final cell seeding density was 20 k-40 k cells per well for 96-well plates, and ˜10 k cells per well for 384-well plates. Matrigel was added to the cell suspension at a dilution ratio of 1:300 to promote cell adhesion after plating. AraC were added to the cell suspension at the concentration of 0.5 μM to inhibit astroglial cell division. The cells were dispensed into 96-well or 384-well plates (Coming) using a BioTek EL406 plate dispenser. […] The neurons were incubated with the compounds at 37° C./5% CO2 for a week before the luciferase assay.
The cells used for luciferase assay were KCC2 reporter neurons differentiated for 4 weeks, and treated with drug in 96-well format for 2 weeks. Cell density was between 20 k-40 k cells per well.
On the day of the luciferase assay, the cells were washed with PBS for two times, and 100 μl of cell lysis buffer was applied to the washed cells. The cell plates were transferred to a rocker to shake for 10 minutes in order to fully lyse the cells.

SMILES	B Score
NC[C@H](CC(=O)O)c1ccc(Cl)cc1 [(R)-Baclofen]	6.65
COc1ccc(CNC(=O)Nc2ncc([N+](=O)[O-])s2)cc1 [AR-AO14418, N-(4-Methoxybenzyl)-N'-(5-nitro-1,3-thiazol-2-yl)urea]	8.69
O=C(O)c1cccc(-c2noc(-c3ccccc3F)n2)c1 [Ataluren, 3-[5-(2-Fluorophenyl)-1,2,4-oxadiazol-3-yl]benzoic acid]	7.43
CCOc1ccn(-c2ccc(F)cc2)c(=O)c1C(=O)Nc1ccc(Oc2ccnc(N)c2Cl)c(F)c1 [BMS 777607, N-(4-(2-amino-3-chloropyridin-4-yloxy)-3-fluorophenyl)-4-ethoxy-1-(4-fluorophenyl)-2-oxo-1,2-dihydropyridine-3-carboxamide]	11.97
O=c1c(-c2ccc(O)cc2)coc2cc(O)ccc12 [Daidzein, 7-hydroxy-3-(4-hydroxyphenyl)-4H-chromen-4-one]	4.64
O=c1c(-c2ccc(O)cc2)coc2cc(O)cc(O)c12 [Genistein, 4',5,7-Trihydroxyisoflavone]	5.11
O=c1c(O)c(-c2ccc(O)cc2)oc2cc(O)cc(O)c12 [Kaempferol, 3,5,7-Trihydroxy-2-(4-hydroxyphenyl)-4H-chromen-4-one]	3.92
O=c1cc(-c2ccc(O)c(O)c2)oc2cc(O)cc(O)c12 [Luteolin, 2-(3,4-Dihydroxyphenyl)-5,7-dihydroxy-4-chromenone]	11.34
O=C(Nc1ccc(OC(F)(F)F)cc1)c1sccc1NCc1ccnc2ccccc12 [OSI-930, 3-[(4-quinolinylmethyl)amino]-N-[4-(trifluoromethoxy)phenyl]-2-thiophenecarboxamide]	5.55
CC(C)CC(=O)N[C@H](C(=O)N[C@H](C(=O)N[C@@H](CC(C)C)[C@@H](O)CC(=O)N[C@@H](C)C(=O)N[C@@H](CC(C)C)[C@@H](O)CC(=O)O)C(C)C)C(C)C [Pepstatin, Isovalery-Val-Val-Sta-Ala-Sta] (Isovaleryl-VV[Sta]A[Sta]-OH)	8.64
O=c1c(O)c(-c2ccc(O)c(O)c2)oc2cc(O)cc(O)c12 [Quercetin-2H2O, 2-(3,4-dihydroxyphenyl)-3,5,7-trihydroxy-4H-chromen-4-one]	7.76
O=C1CCc2c(ccc3ccccc23)O1 [Splitomycin, 1,2-Dihydro-3H-naphtho[2,1-b]pyran-3-one]	9.79
CC(C)[C@@H]1NC(=O)[C@H](C)OC(=O)[C@@H](C(C)C)NC(=O)[C@@H](C(C)C)OC(=O)[C@H](C(C)C)NC(=O)[C@H](C)OC(=O)[C@@H](C(C)C)NC(=O)[C@@H](C(C)C)OC(=O)[C@H](C(C)C)NC(=O)[C@H](C)OC(=O)[C@@H](C(C)C)NC(=O)[C@@H](C(C)C)OC1=O [Valinomycin, Cyclo-(L-Val-D-HyIva-D-Val-L-Lac-)3]	4.49
CCC(C)C(CC)C(N)=O (centres unmarked) [Valnoctamide, 2-ethyl-3-methyl-pentanamide]	14.99

From patent US12053465B2, “KCC2 expression enhancing compounds and uses thereof” (Whitehead Institute for Biomedical Research, priority 2017, dated 2024)
